Structures can show the parent of a compound that is named as a salt. Where two headings read alike, the source gives them in different places.
Experiments:
[1] = system: 3 strains of influenza A virus and one strain of influenza B virus; assay type: cell-based; details: Vero cells; screening at 50, 10, 5 and 1 μM; all four influenza strains
[2] = system: influenza A/PR/8/34 (H1N1); assay: microbe, parasite or virus in culture; assay type: cell-based, influenza A virus
[3] = system: influenza A/WS/33 (H1N1); assay: microbe, parasite or virus in culture; assay type: cell-based, influenza A virus
[4] = system: influenza A/HK/8/68 (H3N2); assay: microbe, parasite or virus in culture; assay type: cell-based, influenza A virus
[5] = system: influenza B/GL/1739/54; assay: Anti-viral EC50 experiment, survival of virus-infected Vero cells; assay type: cell-based, influenza B virus
Protocol: The following MDT compounds were tested: MDT-1, MDT-3, MDT-10, MDT-11, MDT-12, MDT-13, MDT-14, MDT-15, MDT-16, MDT-22, MDT-23, MDT-24, MDT-26, MDT-27, MDT-28, MDT-29, MDT-30, MDT-31, MDT-32, MDT-33, MDT-34, MDT-40, MDT-41, MDT-42, MDT-43, MDT-44, MDT-45, MDT-46, MDT-47, MDT-48, MDT-49, MDT-50, MDT-51, MDT-53, MDT-56, MDT-57, MDT-58, MDT-59, MDT-60, MDT-61, MDT-62, MDT-63, MDT-65, MDT-67, MDT-68 and MDT-69. […] Amantadine and rimantadine are both adamantane derivatives.
Compound diluents were dimethyl sulfoxide (DMSO), Molecusol ((2-hydroxypropyl)-β-cyclodextrin; Sigma H107), propylene-glycol (PG) and deionized water. Diluents were used singly or in combination as necessary to dissolve the compounds.
The medium used for the cell lines was 1× Minimal Essential Medium (MEM) (Invitrogen) supplemented with 1% L-glutamine, 1% penicillin-streptomycin, 0.125% bovine serum albumin (BSA), and 1 μg/ml of TPCK-trypsin.
The viruses tested were influenza A/PR/8/34 (H1N1), influenza A/WS/33 (H1N1), influenza A/HK/8/68 (H3N2) and influenza B/GL/1739/54 (no H, N subtyping). Cells used were the Vero line of African green monkey, normal kidney cells. All viruses and cells were obtained from The American Type Culture Collection (Rockville, Md.). Cells were grown in an atmosphere of 4-6% CO2 at 34-38° C. in MEM with 5% fetal bovine serum (FBS), 2 mM glutamine, and 1% penicillin-streptomycin solution to maintain exponential growth.
The Vero cells were plated on Day 0. On Day 1, cells were infected with virus and incubated with various concentrations of test compounds. […] On Day 4 the cells were fixed and stained. […] Cell survival due to exposure to test compound was indicative of anti-viral activity.

[6] = system: Vero cells; details: Table 3, MDT compounds, No Tox. = no cytotoxicity measured
[7] = Table 3, Vero cells, H1N1, n at least 2, No effic. = no efficacy measured, read-out: EC50 Virus A/PR/8/34
[8] = Table 3, Vero cells, H1N1, n at least 2, No effic. = no efficacy measured, read-out: EC50 Virus A/WS/33
[9] = Table 3, Vero cells, H3N2, n at least 2, No effic. = no efficacy measured
[10] = Table 3, Vero cells, n at least 2, No effic. = no efficacy measured
[11] = Table 3, Vero cells, H1N1, n at least 2, No effic. = no efficacy measured
[12] = Table 3, Vero cells, H3N2, n at least 2, No effic. = no efficacy measured, read-out: EC50 Virus A/HK/8/68
[13] = Influenza A virus, Table 3, Vero cells, H1N1, n at least 2, No effic. = no efficacy measured

## CC12CC3C4CC5CC3C(C1)C(C5)C4C2 [MDT-60, 4-methyldiamantane]
[1]
  anti-viral activity under the conditions tested: did not exhibit anti-viral activity

## CC12CC3C4CC5(C)CC3C(C1)C(N)(C5)C4C2 [MDT-51, 4,9-dimethyl-1-aminodiamantane]
[1]
  anti-viral activity under the conditions tested: did not exhibit anti-viral activity

## OC12C3CC4CC5C3CC3C6CC(CC31)CC2(C4)C56 [MDT-40, 2-hydroxytriamantane]
[2]; [7]
  EC50: 1900 nM
[3]; [8]
  EC50: 24900 nM
[4]; [9]
  EC50 Virus A/HK/8/68: No Effic.
[5]; [10]
  EC50 Virus B/GL/1739/54: No Effic.
[6]
  Cytotoxicity: No Tox.

## OC12CC3C4CC5C6CC7(O)CC5C(C4C1)C(C2)(C7)C36 [MDT-15, 9,15-dihydroxytriamantane]
[1]
  anti-viral activity under the conditions tested: did not exhibit anti-viral activity

## CC12CC3CC4C1CC1(N)CC2C(C3)C4(C)C1 [MDT-23, 1,6-dimethyl-4-aminodiamantane]
[1]
  anti-viral activity under the conditions tested: did not exhibit anti-viral activity

## CC12CC3CC4C5CC(N)(CC41)CC2C5C3 [MDT-24, 1-methyl-4-aminodiamantane]
[2]; [11]
  EC50 Virus A/PR/8/34: No Effic.
[3]; [11]
  EC50 Virus A/WS/33: No Effic.
[4]; [12]
  EC50: 70 nM
[5]; [10]
  EC50 Virus B/GL/1739/54: No Effic.
[6]
  Cytotoxicity: No Tox.

## CC(N)C12CC3(C)CC4C5CC(C)(CC41)CC2C5C3 (stereo not shown) [MDT-67, 4,9-dimethyl-1-diamantane-1′-methyl-methyleneamine]
[1]
  anti-viral activity under the conditions tested: did not exhibit anti-viral activity

## NC12CC3CC(CC(C3)C1)C2 [Amantadine, 1-aminoadamantane hydrochloride, reference compound]
[2]; Influenza A virus, Vero, Table 4, controls, cutoff control values compiled through many experiments
  EC50: ≥ 50000 nM
[3]; Influenza A virus, H1N1, Vero, Table 4, controls, cutoff control values compiled through many experiments
  EC50: ≥ 10000 nM
[4]; Influenza A virus, H3N2, Vero, Table 4, controls, cutoff control values compiled through many experiments
  EC50: ≤ 1000 nM
[5]; Influenza B virus, Vero, Table 4, controls, cutoff control values, determined over only 2 experiments
  EC50: ≥ 20 µM

## OC12CC3CC4C1CC1C5CC6CC1C2C(C6)(C3)C54 (stereo not shown) [MDT-41, 3-hydroxytriamantane]
[2]; [13]
  EC50: 610 nM
[3]; [13]
  EC50: 5500 nM
[4]; [9]
  EC50 Virus A/HK/8/68: No Effic.
[5]; [10]
  EC50 Virus B/GL/1739/54: No Effic.
[6]
  Cytotoxicity: No Tox.

## 3-aminotriamantane [MDT-48]
[1]
  anti-viral activity under the conditions tested: did not exhibit anti-viral activity

## CC12CC3C4CC5(C)CC(C(C1)C3(N)C5)C4(N)C2 [MDT-53, 4,9-dimethyl-1,6-diaminodiamantane]
[1]
  anti-viral activity under the conditions tested: did not exhibit anti-viral activity

## NCC12CC3C4CC5CC3C(C1)C(C5)C4C2 [MDT-61, 4-diamantanemethylamine]
[2]; [11]
  EC50 Virus A/PR/8/34: No Effic.
[3]; [11]
  EC50 Virus A/WS/33: No Effic.
[4]; [12]
  EC50: 100 nM
[5]; [10]
  EC50 Virus B/GL/1739/54: No Effic.
[6]
  Cytotoxicity: 50 or above μM

## CC12CC3CC4C1CC1(CN)CC2C(C3)C4(C)C1 [MDT-65, 1,6-dimethyl-4-diamantanemethyleneamine]
[1]
  anti-viral activity under the conditions tested: did not exhibit anti-viral activity

## CC12CC3CC4C1CC1CC2C(O)(C3)C4(C)C1 (stereo not shown) [MDT-44, 1,6-dimethyl-2-hydroxydiamantane]
[2]; [7]
  EC50: 50 nM
[3]; [8]
  EC50: 610 nM
[4]; [9]
  EC50 Virus A/HK/8/68: No Effic.
[5]; [10]
  EC50 Virus B/GL/1739/54: No Effic.
[6]
  Cytotoxicity: No Tox.

## CC(N)C12CC3CC4C5CC(CC41)CC2C5C3 (stereo not shown) [MDT-57, 1-(1-aminoethyl)diamantane]
[2]; [11]
  EC50 Virus A/PR/8/34: No Effic.
[3]; [11]
  EC50 Virus A/WS/33: No Effic.
[4]; [12]
  EC50: 160 nM
[5]; [10]
  EC50 Virus B/GL/1739/54: No Effic.
[6]
  Cytotoxicity: 50 or above μM

## O=NC12CC3CC4C5CC(CC41)CC2C5C3 [MDT-26, 1-nitrosodiamantane]
[2]; [7]
  EC50: 140 nM
[3]; [8]
  EC50: 800 nM
[4]; [9]
  EC50 Virus A/HK/8/68: No Effic.
[5]; [10]
  EC50 Virus B/GL/1739/54: No Effic.
[6]
  Cytotoxicity: No Tox.

## O=C1C2CC3C4CC5CC3C1C(C5)C4C2 [MDT-59, 3-diamantanone]
[1]
  anti-viral activity under the conditions tested: did not exhibit anti-viral activity

## CC12CC3CC4C1CC1(O)CC2C(C3)C4(C)C1 [MDT-45, 1,6-dimethyl-4-hydroxydiamantane]
[2]; [7]
  EC50: 20 nM
[3]; [8]
  EC50: 300 nM
[4]; [9]
  EC50 Virus A/HK/8/68: No Effic.
[5]; [10]
  EC50 Virus B/GL/1739/54: No Effic.
[6]
  Cytotoxicity: No Tox.

## CC12CC3CC4C1CC1(N)CC2C(C3)C4(C)C1 [MDT-33, 1,6-dimethyl-4-aminodiamantane]
[1]
  anti-viral activity under the conditions tested: did not exhibit anti-viral activity

## O=NC12CC3C4CC5CC3C(C1)C(C5)C4C2 [MDT-27, 4-nitrosodiamantane]
[2]; [7]
  EC50: 20 nM
[3]; [8]
  EC50: 360 nM
[4]; [9]
  EC50 Virus A/HK/8/68: No Effic.
[5]; [10]
  EC50 Virus B/GL/1739/54: No Effic.
[6]
  Cytotoxicity: No Tox.

## OC12CC3CC4C1CC1CC4C(O)(C3)C2C1 [MDT-13, 1,7-dihydroxydiamantane]
[1]
  anti-viral activity under the conditions tested: did not exhibit anti-viral activity

## OC12CC3CC4C1CC1CC2C(C3)C4(O)C1 [MDT-12, 1,6-dihydroxydiamantane]
[1]
  anti-viral activity under the conditions tested: did not exhibit anti-viral activity

## CC12CC3CC4C1CC1(C(=O)O)CC2C(C3)C4(C)C1 [MDT-46, 1,6-dimethyl-4-diamantanecarboxylic acid]
[2]; [7]
  EC50: < 125 nM
[3]; [8]
  EC50: < 125 nM
[4]; [9]
  EC50 Virus A/HK/8/68: No Effic.
[5]; [10]
  EC50 Virus B/GL/1739/54: No Effic.
[6]
  Cytotoxicity: No Tox.

## OC12CC3C4CC5C6CC7CC5C(C4C1)C(C7)(C2)C63 [MDT-42, 9-hydroxytriamantane]
[2]; [13]
  EC50: 80 nM
[3]; [13]
  EC50: 2500 nM
[4]; [9]
  EC50 Virus A/HK/8/68: No Effic.
[5]; [10]
  EC50 Virus B/GL/1739/54: No Effic.
[6]
  Cytotoxicity: No Tox.

## NC12CC3CC4C5CC(CC41)CC2C5C3 [MDT-1, 1-aminodiamantane]
[1]
  anti-viral activity under the conditions tested: did not exhibit anti-viral activity

## OC12CC3CC4C5CC(CC41)CC2C5C3 [MDT-10, 1-hydroxydiamantane]
[1]
  anti-viral activity under the conditions tested: did not exhibit anti-viral activity

## 9-aminotriamantane [MDT-49]
[1]
  anti-viral activity under the conditions tested: did not exhibit anti-viral activity

## 2-aminotriamantane [MDT-50]
[2]; [7]
  EC50: 20 nM
[3]; [8]
  EC50: 370 nM
[4]; [9]
  EC50 Virus A/HK/8/68: No Effic.
[5]; [10]
  EC50: < 1 µM
[6]
  Cytotoxicity: 10 or above μM

## CC12CC3(N)CC4C5CC(CC41)CC2C5C3 [MDT-22, 2-methyl-4-aminodiamantane]
[1]
  anti-viral activity under the conditions tested: did not exhibit anti-viral activity

## NCC12CC3CC4C5CC(CC41)CC2C5C3 [MDT-56, 1-diamantanemethylamine]
[1]
  anti-viral activity under the conditions tested: did not exhibit anti-viral activity

## CC12CC3CC4C1CC1(N)CC2C(C3)C4(N)C1 [MDT-29, 1-methyl-4,6-diaminodiamantane]
[1]
  anti-viral activity under the conditions tested: did not exhibit anti-viral activity

## CC(N)C12CC3C4CC5CC(C(C1)C3(C)C5)C4(C)C2 (stereo not shown) [MDT-68, 1,6-dimethyl-4-diamantane-4′-methyl-methyleneamine]
[1]
  anti-viral activity under the conditions tested: did not exhibit anti-viral activity

## CC12CC3CC4C5CC(CC41)CC2(N)C5C3 (stereo not shown) [MDT-30, 1-amino-12-methyldiamantane]
[1]
  anti-viral activity under the conditions tested: did not exhibit anti-viral activity

## OC12CC3C4CC5CC3C(C1)C(C5)C4C2 [MDT-11, 4-hydroxydiamantane]
[1]
  anti-viral activity under the conditions tested: did not exhibit anti-viral activity

## CC12CC3(N)CC4C5CC(N)(CC41)CC2C5C3 [MDT-28, 1-methyl-4,9-diaminodiamantane]
[1]
  anti-viral activity under the conditions tested: did not exhibit anti-viral activity

## CC12CC3C4CC5(C)CC3C(C1)C(CN)(C5)C4C2 [MDT-63, 4,9-dimethyl-1-diamantanemethyleneamine]
[1]
  anti-viral activity under the conditions tested: did not exhibit anti-viral activity

## OC12CC3C4CC5(O)CC3C(C1)C(C5)C4C2 [MDT-14, 4,9-dihydroxydiamantane]
[1]
  anti-viral activity under the conditions tested: did not exhibit anti-viral activity
